What all share (type): physicochemical
The nature of data set [1]: FT-Raman of solid drug samples exposed to 80° C. (thermal stability). To be noted: heated for 216 hours at 80° C. vs unexposed. The text has this: The change in FT-Raman signal is used to measure the rate of drug decomposition and the chemical stability of the drug candidate.
The nature of data set [2]: Powder X-ray diffraction of exposed and unexposed drug sample (thermal stability, crystallinity). To be noted: solid, oven 216 hours at 100 C vs unexposed. The protocol:
Approximately 2 mg of Amoxicillin was placed on a Universal ⋄ Substrate™ and exposed in an oven for 216 hours at 100 C. After the sample was removed from the oven, approximately 2 mg of unexposed sample was also on the placed on the Universal ⋄ Substrate™. The X-ray powder diffraction (XRD) patterns for the exposed and unexposed samples were collected on a Bruker D-8 C2 X-ray diffractometer.

A short description of data set [3]: Fluorescence emission of solid drug samples exposed to 80° C. (thermal stability). The note with it: oven at 80° C., 15 and 41 hours vs unexposed, Renishaw Raman Spectrometer. On the procedure: In the following examples, drug candidate stability is evaluated using non-destructive tests to track any change in property over time while exposed to a condition. Fluorescence, Raman, powder X-ray diffraction, near-IR, mid-IR, UV-Vis absorbance, and colorimetry are used. A change in the peak intensity for these tests is measured for the samples before exposure and during exposure.
Two 20 ml vials containing approximately 10 mg each of Amoxicillin, two 20 ml vials containing approximately 10 mg each of Ampicillin trihydrate and two 20 ml vials containing approximately 10 mg each of Caphalexin hydrate were prepared and placed in an oven at 80° C. One vial of each compound was removed from the oven after 15 hours of exposure, and the other vial of each compound was removed from the oven after 41 hours. Approximately 2 mg samples from each of the vials were placed in discreet regions of a Universal ⋄ Substrate™. Approximately 2 mg of unexposed Amoxicillan, Ampicillin trihydrate and Cephalexil hydrate were also placed in discreet regions of the Universal ⋄ Substrate™. The Raman scattering response and the fluorescence emission response of the samples were measured using a Renishaw Raman Spectrometer.

Each structure is given as a SMILES string.

As to `CC1(C)S[C@@H]2[C@H](NC(=O)[C@H](N)c3ccc(O)cc3)C(=O)N2[C@H]1C(=O)O` [Amoxicillin], the “change of FT-Raman spectrum after heating” value in data set [1] was “changes significantly”. Further, in data set [2], the “crystallinity (powder diffraction intensity) after exposure” value was “almost completely lost”. Moreover, the “amplitude of the fluorescence emission as a function of heating time” value in data set [3] is on record as “increased significantly”.
As for `CC1(C)S[C@@H]2[C@H](NC(=O)[C@H](N)c3ccccc3)C(=O)N2[C@H]1C(=O)O` [Ampicillin trihydrate], the “amplitude of the fluorescence emission as a function of heating time” value in data set [3] was “increased significantly”.
The same measure, in the same setting: the value for `CC1=C(C(=O)O)N2C(=O)[C@@H](NC(=O)[C@H](N)c3ccccc3)[C@H]2SC1` [Cephalexin hydrate] was “increased significantly”.

These data come from patent US20040219602A1, “Evaluating effects of exposure conditions on drug samples over time” (Symyx Technologies, Inc., priority 2003, published 2004).
